Results from patent publication US7928238B2, “1,2,3,4-tetrahydro-quinoline derivatives as CETP inhibitors” (Janssen Pharmaceutica NV, priority 2006, dated 2011).
pIC50: −log10 of the molar value. Several values for one entry are separate records, joined by “and”; a condition that tells them apart may be missing. Identical values can stand only once.

How the values were obtained:
cholesterol-fed hamsters = assay: CETP in vivo assay: lipid parameters in cholesterol-fed hamsters; settings: plasma, mean ± SEM, n = 8
Procedure: To determine the in vivo efficacy of a test compound, hamsters were first fed a moderately high cholesterol diet (Research Diets, D5012801) for two weeks before commencing treatment. The animals were orally gavaged with the vehicle (10% solutol, 5% ethanol, 85% D5W) and test compound for 5 days with the last dose being administered 2 hrs before sacrifice. Plasma was obtained and lipid parameters were measured.

CETP = target: T1, CETP (Homo sapiens, UniProt P11597); assay: CETP in vitro assay (Amersham kit TRKQ7005; modified protocol in human plasma, [3H]CE-HDL transfer); format: biochemical; settings: for % Inhibition @ 1 μM / inhibition at 1 µM: 1 μM compound; for inhibition at 1 µM: read-out: % Inhibition @ 1 μM; for pIC50: from plots of % control versus compound concentration
T1 construct: from tissue; host or cells: human plasma from normal volunteers
T1 sequence (P11597 18-493): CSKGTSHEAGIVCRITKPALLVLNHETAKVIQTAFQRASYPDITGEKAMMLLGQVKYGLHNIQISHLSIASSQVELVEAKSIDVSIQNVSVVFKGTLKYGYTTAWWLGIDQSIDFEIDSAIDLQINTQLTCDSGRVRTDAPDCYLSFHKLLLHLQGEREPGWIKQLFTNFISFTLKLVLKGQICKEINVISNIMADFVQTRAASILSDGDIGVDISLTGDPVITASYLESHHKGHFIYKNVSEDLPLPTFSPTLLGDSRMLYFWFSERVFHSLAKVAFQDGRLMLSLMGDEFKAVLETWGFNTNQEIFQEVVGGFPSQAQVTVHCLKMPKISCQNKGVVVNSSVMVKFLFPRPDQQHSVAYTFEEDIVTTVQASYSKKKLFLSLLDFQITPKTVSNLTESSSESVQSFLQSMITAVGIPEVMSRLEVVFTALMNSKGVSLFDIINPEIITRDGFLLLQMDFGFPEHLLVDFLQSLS
How it was run: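 IC50 values were derived by plotting % of vehicle control against compound concentration. Transfer was quantified by counting supernatant radioactivity after Dextralip/MgCl2 precipitation. Compound, human plasma and [3H]CE-HDL (about 25 μg/ml, as added) were incubated 4 h or more at 37 °C, with a 4 °C plate as the non-specific blank.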

[1] = particularly in combination with Atorvastatin; cited from earlier work
rabbits = settings: 30 mg/kg; cited from earlier work
[2] = tested on: rabbits had severe hypercholesterolemia; settings: rabbits with severe hypercholesterolemia; cited from earlier work
[3] = clinical studies; cited from earlier work
[4] = 10 mg/kg oral gavage for 5 days
[5] = 30 mg/kg oral gavage for 5 days

Question: What does the source list for `O[C@@H](CN1c2cccc(-c3cccc(OC(F)(F)F)c3)c2CC[C@@H]1c1cccc(OC(F)(F)C(F)F)c1)C(F)(F)F` [Compound 78, (S)-1,1,1-trifluoro-3-((R)-2-(3-(1,1,2,2-tetrafluoroethoxy)phenyl)-5-(3-(trifluoromethoxy)phenyl)-3,4-dihydroquinolin-1 (2H)-yl)propan-2-ol]?
Answer: HDL-C (cholesterol-fed hamsters; 3 mg/kg oral gavage for 5 days, last dose 2 hrs before sacrifice): 96.2 ± 4.9 mg/dL; HDL-C/LDL-C (cholesterol-fed hamsters; 3 mg/kg oral gavage for 5 days): 3.1 ± 0.2; LDL-C (cholesterol-fed hamsters; 3 mg/kg oral gavage for 5 days): 31.6 ± 1.9 mg/dL; Total Cholesterol (cholesterol-fed hamsters; 3 mg/kg oral gavage for 5 days): 149.3 ± 7.7 mg/dL; Triglycerides (cholesterol-fed hamsters; 3 mg/kg oral gavage for 5 days): 217.7 ± 18.1 mg/dL; HDL-C (cholesterol-fed hamsters; [4]): 117.9 ± 2.9 mg/dL; HDL-C/LDL-C (cholesterol-fed hamsters; [4]): 4.3 ± 0.3; LDL-C (cholesterol-fed hamsters; [4]): 28.1 ± 1.8 mg/dL; Total Cholesterol (cholesterol-fed hamsters; [4]): 178.5 ± 5.4 mg/dL; Triglycerides (cholesterol-fed hamsters; [4]): 325.6 ± 24.3 mg/dL; HDL-C (cholesterol-fed hamsters; [5]): 121.4 ± 2.5 mg/dL; HDL-C/LDL-C (cholesterol-fed hamsters; [5]): 4.6 ± 0.4; LDL-C (cholesterol-fed hamsters; [5]): 27.9 ± 2.5 mg/dL; Total Cholesterol (cholesterol-fed hamsters; [5]): 188.4 ± 9.2 mg/dL; Triglycerides (cholesterol-fed hamsters; [5]): 350.8 ± 10.9 mg/dL; % Inhibition @ 1 μM (CETP): 79%; inhibition at 1 µM (CETP): 85%; pIC50 (CETP): 7.47 and 7.36

Question: For `CCOC(=O)N1c2ccc(C(F)(F)F)cc2[C@@H](N(Cc2cc(C(F)(F)F)cc(C(F)(F)F)c2)C(=O)OC)C[C@H]1CC` [Torcetrapib], which “results in Phase II trials” value [1] is on record?
Answer: positive results in Phase II trials

Question: With `CCC(CC)CC1(C(=O)Nc2ccccc2SC(=O)C(C)C)CCCCC1` [JTT-705] as the compound, how does the CETP activity (rabbits) read?
Answer: inhibited CETP activity

Question: What about the “increased HDL-C” value (rabbits) of the same compound?
Answer: +90%

Question: And the reduced lesion size (rabbits)?
Answer: −70%

Question: What about the “reduced non-HDL-C cholesterol” value (rabbits) of the same compound?
Answer: −50%

Question: And the lesion development [2]?
Answer: not efficacious in preventing lesion development

Question: What about the plasma triglycerides [2] of the same compound?
Answer: significant elevations of plasma triglycerides

Question: And the HDL-C [3]?
Answer: raise HDL-C

Question: What about the LDL-C [3] of the same compound?
Answer: modestly lower LDL-C

Question: What about the triglyceride levels [3] of the same compound?
Answer: not alter triglyceride levels

Question: Which “% Inhibition @ 1 μM” value (CETP) does the source give for `COc1cccc(C2CCc3c(-c4cccc(OC(F)(F)F)c4)cccc3N2CC(O)C(F)(F)F)c1` (centres unmarked) [Compound 26, 1,1,1-Trifluoro-3-[2-(3-methoxy-phenyl)-5-(3-trifluoromethoxy-phenyl)-3,4-dihydro-2H-quinolin-1-yl]-propan-2-ol] here?
Answer: 4%

Question: For `CCC1CCc2c(-c3cccc(OC(F)(F)F)c3)cccc2N1CC(O)C(F)(F)F` (centres unmarked) [Compound 35, 3-[2-Ethyl-5-(3-trifluoromethoxy-phenyl)-3,4-dihydro-2H-quinolin-1-yl]-1,1,1-trifluoro-propan-2-ol], which “% Inhibition @ 1 μM” value (CETP) is on record?
Answer: 43% and 45%

Question: Which “% Inhibition @ 1 μM” value (CETP) does the source give for `O[C@H](CN1c2cccc(-c3cccc(OC(F)(F)F)c3)c2CC[C@H]1c1cccc(OC(F)(F)C(F)F)c1)C(F)(F)F` [Compound 81, (2S, αR)-3,4-Dihydro-2-[3-(1,1,2,2-tetrafluoroethoxy)phenyl]-5-[3-(trifluoromethoxy)phenyl]-α-(trifluoromethyl)-1(2H)-quinolineethanol] here?
Answer: 36%

Question: And the inhibition at 1 µM (CETP)?
Answer: 46%

Question: And the pIC50 (CETP)?
Answer: 7.52

Question: With `O=Cc1cccc(-c2cccc3c2CCC(c2cccc(OC(F)(F)C(F)F)c2)N3CC(O)C(F)(F)F)c1` (centres unmarked) [Compound 63, 3-[2-[3-(1,1,2,2-Tetrafluoro-ethoxy)-phenyl]-1-(3,3,3-trifluoro-2-hydroxy-propyl)-1,2,3,4-tetrahydro-quinolin-5-yl]-benzaldehyde] as the compound, how does the inhibition at 1 µM (CETP) read?
Answer: 39%

Question: For `OC(CN1c2cccc(-c3cccc(OC(F)(F)F)c3)c2CCC1c1cccs1)C(F)(F)F` (centres unmarked) [Compound 33, 1,1,1-Trifluoro-3-[2-thiophen-2-yl-5-(3-trifluoromethoxy-phenyl)-3,4-dihydro-2H-quinolin-1-yl]-propan-2-ol], which “% Inhibition @ 1 μM” value (CETP) is on record?
Answer: 28%

Question: With `CCc1cc(Oc2cccc3c2CCC(c2cccc(OC(F)(F)C(F)F)c2)N3CC(O)C(F)(F)F)ccc1Cl` (centres unmarked) [Compound 84, 3-{5-(4-Chloro-3-ethyl-phenoxy)-2-[3-(1,1,2,2-tetrafluro-ethoxy)-phenyl]-3,4-dihydro-2H-quinolin-1-yl}-1,1,1-trifluoro-propan-2-ol] as the compound, how does the “% Inhibition @ 1 μM” value (CETP) read?
Answer: 62%

Question: What about the pIC50 (CETP) of the same compound?
Answer: 6.22

Question: For `N#Cc1cccc(C2CCc3c(-c4cccc(OC(F)(F)F)c4)cccc3N2CC(O)C(F)(F)F)c1` (centres unmarked) [Compound 27, 3-[1-(3,3,3-Trifluoro-2-hydroxy-propyl)-5-(3-trifluoromethoxy-phenyl)-1,2,3,4-tetrahydro-quinolin-2-yl]-benzonitrile], which “% Inhibition @ 1 μM” value (CETP) is on record?
Answer: 48% and 38%

Question: What about the pIC50 (CETP) of the same compound?
Answer: 6.39

Question: With `OC(CF)CN1c2cccc(-c3cccc(OC(F)(F)F)c3)c2CCC1c1cccc(OC(F)(F)F)c1` (centres unmarked) [Compound 49, 1-[2,5-Bis-(3-trifluoromethoxy-phenyl)-3,4-dihydro-2H-quinolin-1-yl]-3-fluoro-propan-2-ol] as the compound, how does the “% Inhibition @ 1 μM” value (CETP) read?
Answer: 63% and 77%

Question: And the pIC50 (CETP)?
Answer: 6.48

Question: For `N#Cc1cccc(C2CCc3c(-c4cccc(OC(F)(F)F)c4)cccc3N2CC(O)C(F)(F)F)c1` (centres unmarked) [Compound 28, 3-[1-(3,3,3-Trifluoro-2-hydroxy-propyl)-5-(3-trifluoromethoxy-phenyl)-1,2,3,4-tetrahydro-quinolin-2-yl]-benzonitrile], which “% Inhibition @ 1 μM” value (CETP) is on record?
Answer: 25%

Question: For `CC(C)C(O)CN1c2cccc(-c3cccc(OC(F)(F)F)c3)c2CCC1c1cccc(OC(F)(F)F)c1` (centres unmarked) [Compound 45, 1-[2,5-Bis-(3-trifluoromethoxy-phenyl)-3,4-dihydro-2H-quinolin-1-yl]-3-methyl-butan-2-ol], which “% Inhibition @ 1 μM” value (CETP) is on record?
Answer: 74% and 84%

Question: And the pIC50 (CETP)?
Answer: 6.49
